Results published in patent publication US20150265584A1, “LEVUGLANDIN ADDUCTS HISTONE H4 IN A CYCLOOXYGENASE-2-DEPENDENT MANNER, ALTERING ITS INTERACTION WITH DNA” (VANDERBILT UNIVERSITY, priority 2014, published 2015).

Legend:
[1] = system: RAW264.7 cells; test: LG-lysyl adduct formation on histones in COX-2-stimulated, AA-treated RAW264.7 cells (LC/ESI/MS/MS); type: cell-based, mouse; settings: for LG adduct formation on histones (LG-lysyl lactam adduct): 500 μM scavenger pretreated 45 min, 20 μM AA 1 h, n=2
Experimental: (§1) To stimulate COX-2 expression, A549 or RAW264.7 cells were treated overnight with 5 ng/mL IL-1β (A549) or 10 μg/mL LPS and 10 U/mL IFNγ (RAW264.7) in serum-free medium. When indicated, cells were pretreated with indomethacin, aldehyde scavengers (glucosamine, 3-MoSA, PPM or EtSA), or vehicle (ethanol for indomethacin, H2O for scavengers) for 45 min, and then given 20 μM arachidonic acid (AA) or DMSO vehicle for 1 h before lysing.
Cultured cells were lysed in hypotonic buffer (10 mM Tris/10 mM NaCl/3 mM MgCl2) containing 1 mM pyridoxamine and 100 μM indomethacin to prevent the artifactual formation of LGE2 during the lytic process. After letting cells swell on ice, membranes were disrupted by addition of Triton X-100 (0.5% final concentration) and vortexing. Nuclei were isolated by centrifugation for 10 min at 1000×g, and the resulting pellet washed with PBS. Histones were extracted in 0.4 N H2SO4, precipitated with trichloracetic acid, and washed with acetone. […] Histones were resolubilized in dilute NaOH, and pH neutralized with HCl. Protein concentration was determined using the method of Bradford. For tissue, a portion of frozen liver was homogenized in buffer containing 40 mM sodium citrate, and 1% Triton X-100 with 3 mM Trolox and 100 μM indomethacin. The supernatant was separated from settled debris, and nuclei were pelleted at 500×g and washed. Nuclear pellets were frequently transferred to fresh tubes to avoid contamination by floating lipid debris; any remaining was removed with a cotton swab. Histones were extracted as above. All centrifugation steps were carried out at 4° C.
Histone samples were prepared for mass spectrometry by addition of ammonium bicarbonate to 5 mM final concentration before digesting to single amino acids by protease step-digestion as previously described. In the case of immunoblots, proteins were digested directly off the nitrocellulose through incubation of the nitrocellulose strip in 30 μg/mL Pronase in ammonium bicarbonate buffer, and later addition of aminopeptidase. All samples were centrifuged at 2000×g for 10 min. after final digestion to remove precipitate, spiked with 0.2 ng ^13C-lysyl-lactam internal standard, and purified on prepared tC18 cartridges (Waters Corp., Milford, Mass.). Samples on tC18 cartridges were washed with water, then 30% methanol, before being eluted in 80% methanol and concentrated by evaporation. Samples were evaluated by electrospray ionization (ESI) LC/MS/MS on a ThermoFisher TSQ Quantum triple quadrapole mass spectrometer in positive ion mode and quantitated by isotopic dilution as previously described, with the exception of a reduced flow rate of 0.1 mL/min.

[2] = system: A549 cells; test: LG-lysyl adduct formation on histones in COX-2-stimulated, AA-treated A549 cells (LC/ESI/MS/MS); type: cell-based, human
Experimental: as §1
Cultured cells were lysed in hypotonic buffer (10 mM Tris/10 mM NaCl/3 mM MgCl2) containing 1 mM pyridoxamine and 100 μM indomethacin to prevent the artifactual formation of LGE2 during the lytic process. After letting cells swell on ice, membranes were disrupted by addition of Triton X-100 (0.5% final concentration) and vortexing. […] Protein concentration was determined using the method of Bradford. […]
Histone samples were prepared for mass spectrometry by addition of ammonium bicarbonate to 5 mM final concentration before digesting to single amino acids by protease step-digestion as previously described. […] Samples were evaluated by electrospray ionization (ESI) LC/MS/MS on a ThermoFisher TSQ Quantum triple quadrapole mass spectrometer in positive ion mode and quantitated by isotopic dilution as previously described, with the exception of a reduced flow rate of 0.1 mL/min.

[3] = system: COX-2; test: PGE2 production in cell media as measure of COX-2 activity (GC/MS), A549 cells; type: cell-based, human
Experimental: as §1
A sample of cellular media was taken just prior to lysis and centrifuged to remove any cellular debris. For PGE2 analysis, samples were spiked with 2 ng of [^2H7] PGE2 as an internal standard. Prostaglandins were isolated and derivatized for analysis by GC/MS, operating in negative ion chemical ionization (NICI) mode and monitoring selected ions as previously described. For the […] internal standard, m/z=528. To account for the deuterium-protium exchange at the position C12 of [^2H7] PGE2, the summation of the signals obtained at m/z=530, m/z=531 and m/z=532 was performed.

[4] = system: histone H4; test: Salt extraction of A549 nuclei, histone H4 solubility (Western blot); type: cell-based, human; settings: A549 cells, 500 μM EtSA 45 min prior to 20 μM AA; 0.6-1.2 M NaCl
Experimental: 60-80% confluent A549 cells were stimulated and treated with AA±500 μM EtSA before scraping cells in lysis media for nuclear isolation as above. After addition of Tritox X-100 and vortexing, 1.5 mL of each sample was aliquoted into an eppendorf and centrifuged to separate nuclei. Pellets were washed with PBS and all buffer removed. Nuclear pellets were resuspended in extraction buffer containing 0.6M, 0.9M, 1.2M or 1.5M NaCl (with 10 mM Tris, pH 7.5, 3 mM MgCl2, 0.5% NP-40, and protease inhibitor cocktail) and incubated 10 min on ice. Following this extraction period, the nuclei were centrifuged at 16,000×g to obtain the soluble fraction. This was sonicated, denatured at 95° C., and analyzed by SDS-PAGE and Western blotting, using Ponceau stain to visualize proteins and confirm equal loading, and anti-H4 antibody (Abcam, Cambridge, Mass.).

Row | Compound | LG adduct formation on histones (LG-lysyl lactam adduct) ([1]; RAW264.7 cells) | protecting histones from modification by levuglandins, comparison with other scavengers ([1]; in comparison with salicylamine, pyridoxamine and their other analogues) | LG-histone adduct formation ([2]; stimulated A549 cells, 30, 300 or 1000 μM EtSA, 20 μM AA 1 h) | PGE2 production ([3]; highest concentration tested (1000 μM EtSA), 20 μM AA 1 h) | PGE2 production ([3]; lower doses of EtSA (data not shown)) | histone H4 elution at lower salt concentrations (DNA-histone interaction) [4] | LG-histone adduct formation ([1]; RAW264.7 cells, 50 μM indomethacin preincubated 45 min, 20 μM AA) | LG-histone adduct formation ([2]; A549 cells, 50 μM indomethacin preincubated 45 min, 20 μM AA)
1 | CCc1ccc(O)c(CN)c1 [EtSA, 5-ethylsalicylamine] | most effectively blocked adduct formation | most potent in protecting histones from modification by levuglandins | inhibited LG-histone adduct formation | without affecting PGE2 production | no effect on PGE2 production | reversed |  | 
2 | COc1ccc2c(c1)c(CC(=O)O)c(C)n2C(=O)c1ccc(Cl)cc1 [indomethacin, reference compound] |  |  |  |  |  |  | blocked | blocked
3 | pentylpyridoxamine [PPM, reference compound] | partially inhibited histone adduct formation, but was much less potent than 5-ethylsalicylamine |  |  |  |  |  |  | 
